What was measured:
[1] = test system: normal human epidermal keratinocytes (NHEKs); assay: Trypsin-like activity of NHEK conditioned medium (Boc-Val-Pro-Arg-AMC substrate); format: cell-based
Protocol: (§1) Culture of primary human keratinocytes. Neonatal NHEKs (ThermoFisher Scientific, Waltham, MA) were cultured in EpiLife medium (ThermoFisher Scientific) supplemented with 1× EpiLife defined growth supplement (ThermoFisher Scientific), 60 μM CaCl2, and 1× antibiotic-antimycotic (PSA; 100 U/ml penicillin, […] streptomycin, 250 ng/ml amphotericin B; ThermoFisher Scientific) at 37° C., 5% CO2. For experiments, NHEKs were grown to 70% confluency followed by differentiation in high calcium EpiLife medium (2 mM CaCl2) for 48 hours before treatment with bacteria sterile filtered supernatant. […] For bacterial supernatant treatments, differentiated NHEKs were treated with sterile filtered bacterial supernatant at 5% by volume to EpiLife medium. NHEKs were only used for experiments between passages 3 and 5.
Protease activity assays. […] Relative fluorescent intensity was analyzed with a SpectraMAX Gemini EM fluorometer (ThermoFisher Scientific) at RTwith readings every 2 hours for 24 hours. BODIPY FL casein plates were read at ex: 485 nm and em: 530 nm. Elastin-like and MMP substrate plates were read at ex: 485 nm and em: 515 nm. Trypsin-like substrate plates were read at ex: 354 nm and em: 435 nm. […]
Trypsin Activity Analysis. […] Relative fluorescent intensity (ex: 354 nm, em: 435 nm) was analyzed with a SpectraMAX Gemini EM fluorometer (Thermo Fisher Scientific). […]

[2] = test system: normal human epidermal keratinocytes (NHEKs); assay: RNA-Seq transcriptional profiling of NHEKs; format: cell-based; details: synthetic peptide, 24 h
Protocol: RNA sequencing. RNA was submitted to the University of California, San Diego (UCSD) genomic core facility for library preparation and sequencing. TruSeq mRNA Library Prep Kit (Illumina) was used for library prep followed by high-throughput sequencing on a HiSeq 2500 sequencer (Illumina). Data was analyzed using Partek Flow and Partek Genomics Suite software and gene ontology analysis was performed using the PANTHER classification system (http[://]pantherdb.org).

[3] = test system: KLK mRNA expression in NHEKs; assay: KLK mRNA expression in NHEKs by quantitative real-time PCR; format: cell-based, human; details: synthetic peptide, normalized to GAPDH
Protocol: Quantitative real-time PCR. RNA was isolated from NHEKs using Purelink RNA isolation columns (ThermoFisher Scientific) according to the manufacturer's instructions. RNA was quantified using a Nanodrop spectrophotometer (ThermoFisher Scientific), and 500 ng of RNA was reverse-transcribed using the iScript cDNA synthesis kit (Bio-Rad, Irvine, CA). Quantitative real-time PCR reactions were ran on a CFX96 real-time detection system (Bio-Rad) using gene-specific primers and TaqMan probes (ThermoFisher Scientific).
RNA isolation and quantitative real-time PCR. All RNA was isolated using the Purelink RNA isolation kit according to manufacturer's instructions (Thermo Fisher Scientific). For NHEKs, 350 μL RNA lysis buffer (with 1% β-mercaptoethanol) was added directly to cells. For mouse tissue, 0.5 cm^2 full thickness skin was bead beat (2× 30 sec, 2.0 mm zirconia bead) in 750 μL of RNA lysis buffer with 5 minutes on ice in between. Tissue was than centrifuged (10 min, 13,000 RPM, 4° C.), followed by adding 350 μL of clear lysate to 70% EtOH and column based isolation of RNA. […] After RNA isolation, samples were quantified with a Nanodrop (ThermoFisher Scientific), and 500 ng of RNA was reverse-transcribed using the iScript cDNA synthesis kit (Bio-Rad). qPCR reactions were ran on a CFX96 Real-Time Detection System (Bio-Rad). […]

[4] = test system: normal human epidermal keratinocytes (NHEKs); assay: Total protease activity of NHEK conditioned medium (BODIPY FL casein); format: cell-based; details: 800 μg ml applied to 24-hour posttreatment conditioned medium
Protocol: as §1
Protease activity assays. […] Relative fluorescent intensity was analyzed with a SpectraMAX Gemini EM fluorometer (ThermoFisher Scientific) at RTwith readings every 2 hours for 24 hours. BODIPY FL casein plates were read at ex: 485 nm and em: 530 nm. Elastin-like and MMP substrate plates were read at ex: 485 nm and em: 515 nm. Trypsin-like substrate plates were read at ex: 354 nm and em: 435 nm.

Substance	dose and time dependence of trypsin activity stimulation in NHEKs ([1]; synthetic peptide)	trypsin activity in NHEKs treated with synthetic PSM peptide ([1]; synthetic peptide added to NHEKs for up to 24 h)	transcriptional profile (RNA-Seq) of NHEKs [2]	dose and time dependence of KLK6 mRNA expression in NHEKs [3]	effect of serine protease inhibitor on S. aureus-induced total protease activity [4]
f-MEFVAKLFKFFKDLLGKFLGNN [PSMα3]	dose and time dependent manner	strongest PSMα trypsin activity inducers	broad effect on expression of genes related to the skin barrier	dose and time dependent manner	–
aprotinin	–	–	–	–	confirmed that this activity was due to serine proteases
